Results from PMC11231141, “Ube3a unsilencer for the potential treatment of Angelman syndrome” (Nature Communications, 2024).

Key:
[1] = system: paternal UBE3A-YFP; test: paternal UBE3A-YFP unsilencing, high-content imaging in mouse primary neurons (Ube3a m+/pYFP); format: cell-based; details: for Emax / EC50: Mus musculus, 72 h, mean ± SEM; for Emax: Neuron, highest concentration with at least 90% neurons alive, read-out: EMAX (% patUBE3A-YFP+); for EC50: Primary neuron, n = 3; for capability to unsilence paternal Ube3a (analog test): mouse primary neurons, up to 5 μM
Protocol: We aimed to identify novel unsilencers of paternal Ube3a by employing a previously developed high-content small molecule screen. This screen was performed in primary neurons derived from knock-in mice harboring a yellow fluorescent protein (YFP) fused to the paternal allele of Ube3a[25], allowing for fluorescence-based identification of the paternal allele-specific expression of UBE3A-YFP (detected by a GFP antibody enhancement) (Fig. 1a and Supplementary Table 1). We screened >2800 compounds from a Pfizer chemogenetic library, which contains small molecules selected to cover a broad spectrum of pharmacological space. We screened small molecules at 1 μM concentration and used 0.3 μM topotecan, a topoisomerase inhibitor that can downregulate the Ube3a-ATS and unsilence the paternal Ube3a, as a positive control (Fig. 1b)[10]. Small molecules that increase the UBE3A-YFP signal represent putative paternal Ube3a unsilencers.
(§1) Immunofluorescence for high-content imaging analysis was performed as previously described with slight modifications. Following drug treatment at DIV7, primary neurons were fixed at DIV10 with 4% paraformaldehyde in PBS at room temperature (RT) for 10 min. After three brief washes in PBS, neurons were permeabilized with PBS/1% Triton-X-100 at RT for 10 min, followed by blocking with PBS including 5% normal goat serum and 0.2% Triton-X-100 (NGST) at RT. […] All acquired images were analyzed by CellProfiler[48]. The mean GFP signal from each drug-treated well was normalized to the average mean GFP signal from DMSO-treated neurons. […] Fluorescent images were acquired using a Nikon Ti2 eclipse fluorescence microscope (Nikon Instruments Inc.) and analyzed using Nikon NIS-Elements software (Nikon Instruments Inc.). Antibody-enhanced UBE3A-YFP fluorescence intensities were determined from DAPI and NeuN double-positive neurons in drug-treated wells and normalized to neurons in DMSO-treated wells. The cytotoxicity of a compound was determined by calculating the percentage of neurons (DAPI and NeuN double-positive cells) alive in drug-treated wells compared to the DMSO-treated wells. For determining the effectiveness of unsilencing, the percent neurons expressing GFP signal in neurons (DAPI and NeuN double-positive cells) in drug-treated wells was thresholded such that the percent GFP positive neurons in DMSO-treated wells was set to ~5%. Concentrations where more than 10% of neurons were dead compared to DMSO-treated wells were manually removed and the last included data point was set as a maximum efficacy. Sigmoidal curve fitting for the dose-response analysis was performed using GraphPad Prism software version 8.0 (GraphPad Software).

[2] = system: Ube3a-ATS; test: quantitative RT-PCR of Ube3a-ATS in Ube3a m-/p+ primary neurons; format: cell-based, mouse; details: 72 h at DIV7, 0.3 µM topotecan, 1 µM (S)- or (R)-PHA533533, 0.1 µM 2, 0.1 µM 3, 0.3 µM (±)-4, 5 µM (S,R)-5
Protocol: Next, 1 ml of Neurobasal Plus medium (A3582901, ThermoFisher) containing 5% FBS (TMS-013-B; MilliporeSigma) was added to the cortical mixture to deactivate the papain and subsequently triturated. […] Isolated cortical neurons were plated onto poly-D-lysine coated 384-well plates at 2 × 10^4 cell/well for screening and dose-response assays, or 6-well plates at 1 × 10^6 cell/well for molecular and biochemical assays (western blot, ASO-dependent knock-down, and quantitative RT-PCR).

[3] = system: UBE3A protein; test: western blot of UBE3A protein in Ube3a m-/p+ primary neurons; format: cell-based, mouse; details: 72 h at DIV7, 0.3 µM topotecan, 1 µM (S)-PHA533533, 0.1 µM 3, 0.3 µM (±)-4
Protocol: 2’ MOE gapmer antisense oligonucleotides (ASOs) designed to target mouse Cdk2 sequence […], Cdk5 sequence […], Top1 sequence […], and scrambled […] sequence as a negative control (Integrated DNA Technologies) were formulated in water and added to cultured cortical neurons grown on 6-well plates at DIV5 at a final concentration of 10 μM. Neurons were further cultured and treated at DIV7 with vehicle (0.1% DMSO) or the indicated compounds for 72 h. For western blot analysis, neurons were washed once with PBS and then lysed using RIPA buffer (50 mM Tris-HCl pH 8.0, 150 mM NaCl, 1% NP−40, 0.5% Na-deoxycholate, 0.5% SDS) and protease inhibitor cocktail (P8340, MilliporeSigma) on ice.

[4] = cytotoxicity (% viable DAPI/NeuN neurons vs DMSO) in mouse primary neurons; format: cell-based; details: primary cortical neurons from E15.5 mouse embryos, mean ± SEM, n = 3
Protocol: as §1

[5] = biological target: T1, TOP1 (Homo sapiens, UniProt P11387); test: TOP1-mediated DNA relaxation assay; format: biochemical; details: 3 μM topotecan; increasing concentrations of (S)- and (R)-PHA533533; vs DMSO
T1 construct: purchased TopoGEN
T1 sequence (P11387 1-765): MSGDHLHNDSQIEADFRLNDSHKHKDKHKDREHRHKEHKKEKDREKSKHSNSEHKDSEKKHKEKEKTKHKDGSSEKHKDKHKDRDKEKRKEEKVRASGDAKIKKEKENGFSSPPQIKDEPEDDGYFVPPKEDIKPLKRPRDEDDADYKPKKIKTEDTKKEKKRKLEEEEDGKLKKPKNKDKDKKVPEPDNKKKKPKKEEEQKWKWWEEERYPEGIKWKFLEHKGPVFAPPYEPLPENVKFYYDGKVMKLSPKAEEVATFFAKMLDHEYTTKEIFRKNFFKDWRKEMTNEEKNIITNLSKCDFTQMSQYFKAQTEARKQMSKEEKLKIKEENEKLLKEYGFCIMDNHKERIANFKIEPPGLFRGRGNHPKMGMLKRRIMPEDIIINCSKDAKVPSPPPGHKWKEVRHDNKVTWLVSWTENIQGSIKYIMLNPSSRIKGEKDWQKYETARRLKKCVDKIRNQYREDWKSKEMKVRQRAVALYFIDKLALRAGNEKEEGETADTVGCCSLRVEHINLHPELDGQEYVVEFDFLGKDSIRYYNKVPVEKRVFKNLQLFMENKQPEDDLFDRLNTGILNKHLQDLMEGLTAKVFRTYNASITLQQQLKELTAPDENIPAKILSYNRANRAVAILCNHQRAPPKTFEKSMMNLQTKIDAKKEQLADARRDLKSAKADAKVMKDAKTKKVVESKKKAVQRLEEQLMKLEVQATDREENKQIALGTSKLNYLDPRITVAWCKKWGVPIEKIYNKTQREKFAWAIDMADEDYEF
Text: […]. […] […]. […] […]. […] […].
The Pfizer chemogenetic library and PHA533533 derivatives were provided by the Compound Transfer Program (CTP) at Pfizer. Topotecan hydrochloride salt was purchased from Cayman Chemicals (Item No. 14129). […] […]. The Human Topoisomerase I Assay Kit was purchased from TopoGEN and performed according to the manufacturer’s protocols.

O=C(Cc1ccc(-c2ccccc2)cc1)Nc1cc(C2CC2)[nH]n1 [Compound 3]
Emax [1]: 43.5 ± 8.24%
EC50 [1]: 100 ± 10 nM
capability to unsilence paternal Ube3a (analog test) [1]: could unsilence paternal Ube3a
relative quantity of Ube3a-ATS vs DMSO [2]: downregulated
UBE3A protein levels vs DMSO [3]: significantly increased
CC50 at 72 h [4]: 300 ± 30 nM

O=C(Cc1ccc2ccccc2c1)Nc1cc(C2CC2)[nH]n1 [Compound 2]
Emax [1]: 71.4 ± 7.34%
EC50 [1]: 140 ± 20 nM
capability to unsilence paternal Ube3a (analog test) [1]: could unsilence paternal Ube3a
relative quantity of Ube3a-ATS vs DMSO [2]: downregulated
relative quantity of Ube3a-ATS vs DMSO ([2]; listed as compound 2): did not reach statistical significance
CC50 at 72 h [4]: 570 ± 90 nM

C[C@@H](C(=O)Nc1cc(C2CC2)[nH]n1)c1ccc(N2CCCC2=O)cc1 [(R)-PHA533533]
paternal UBE3A-YFP immunofluorescent signal [1]: minimal UBE3A-YFP immunofluorescent signal
inhibition of TOP1 catalytic activity to relax supercoiled DNA [5]: had no effect on the TOP1 activity

CC(C(=O)Nc1cc(C2CC2)[nH]n1)c1ccc(N2CCCC2)cc1 (racemic) [Compound (±)-4]
Emax [1]: 65.7 ± 15.4%
EC50 [1]: 260 ± 100 nM
capability to unsilence paternal Ube3a (analog test) [1]: could unsilence paternal Ube3a
relative quantity of Ube3a-ATS vs DMSO [2]: downregulated
UBE3A protein levels vs DMSO [3]: significantly increased
CC50 at 72 h [4]: 1460 ± 240 nM

CC(C(=O)Nc1cc(C2CC2)[nH]n1)c1ccc(N2CCC(O)C2=O)cc1 [Compound (S,R)-5]
Emax [1]: 58.3 ± 9.24%
EC50 [1]: 5300 ± 370 nM
capability to unsilence paternal Ube3a (analog test) [1]: could unsilence paternal Ube3a
relative quantity of Ube3a-ATS vs DMSO [2]: downregulated
CC50 at 72 h [4]: 12800 ± 780 nM
